Assay results as given in ChEMBL document CHEMBL1122271, “Folate analogues. 22. Synthesis and biological evaluation of two analogues of dihydrofolic acid possessing a 7,8-dihydro-8-oxapterin ring system” (J Med Chem, 1983).
≈ marks a conversion by molar mass, not a printed value.

Columns and labels:
Format in all cases: functional, organism-based
[1] = system: Lacticaseibacillus casei; assay: Compound was measured for the growth inhibition of Lactobacillus casei up to concentration 4 ug/mL; NA means inactive
[2] = system: Enterococcus faecium; assay: Compound was measured for the growth inhibition of Streptococcus faecium; settings: read-out: I50
[3] = system: Enterococcus faecium; assay: Compound was measured for the growth inhibition of S. faecium; NA means inactive

SMILES: NC1=NC(=O)C2N=C(Cc3ccc(C(=O)NC(CCC(=O)O)C(=O)O)cc3)COC2N1 (centres undefined)
- I50 [1]: Not Active
- IC50 [2]: 1.4 µg/mL (≈ 3.25 µM)

SMILES: NC1=NC(=O)C2N=C(c3ccc(C(=O)NC(CCC(=O)O)C(=O)O)cc3)COC2N1 (centres undefined)
- I50 [1]: Not Active
- I50 [3]: Not Active
